Consider 4 compounds from ChEMBL document CHEMBL3044711, “Synthesis, characterization, and antimicrobial activity of some new 2-diazo-benzimidazole derivatives and their Ni(II), Cu(II), and Ag(I) complexes” (2013).

Type in all cases: functional
In assay [1] the test system is Klebsiella pneumoniae. Nature of the assay: Antimicrobial activity against Klebsiella pneumoniae assessed as diameter of growth inhibition zone at 1 mg/ml after 24 hr by nutrient agar well diffusion method. A general note: In agar diffusion tests the substance spreads into inoculated agar from a disc or well.
In assay [2] the test system is Candida albicans. Nature of the assay: Antimicrobial activity against Candida albicans assessed as diameter of growth inhibition zone at 1 mg/ml after 48 hr by potato dextrose agar well diffusion method.
Assay [3] concerns Bacillus subtilis. Nature of the assay: Antimicrobial activity against Bacillus subtilis assessed as diameter of growth inhibition zone at 1 mg/ml after 24 hr by nutrient agar well diffusion method. Conditions: for zone of inhibition at 1000 µg/mL: read-out: DIZ.
For assay [4], the system named is Staphylococcus aureus. Nature of the assay: Antimicrobial activity against Staphylococcus aureus assessed as diameter of growth inhibition zone at 1 mg/ml after 24 hr by nutrient agar well diffusion method. Conditions: for zone of inhibition at 1000 µg/mL: read-out: DIZ.
In assay [5] the test system is Escherichia coli. Nature of the assay: Antimicrobial activity against Escherichia coli assessed as diameter of growth inhibition zone at 1 mg/ml after 24 hr by nutrient agar well diffusion method. Conditions: read-out: DIZ.
For assay [6], the system named is Aspergillus niger. Nature of the assay: Antimicrobial activity against Aspergillus niger assessed as diameter of growth inhibition zone at 1 mg/ml after 48 hr by potato dextrose agar well diffusion method.

Calls of active or inactive are those of the source. The rule behind the calls is not given here.

For `CCOC(=O)C(C#N)/N=N/c1nc2ccccc2[nH]1` (stereo not drawn), the zone of inhibition at 1000 µg/mL in assay [1] (read-out: DIZ) came out at 9 mm; in assay [2] (read-out: DIZ), 9 mm; in assay [3] it was 8 mm; in assay [4], 7.5 mm; in assay [5], 8.5 mm; in assay [6] (read-out: DIZ), 8.5 mm.
Take `CC1(C)S[C@@H]2[C@H](NC(=O)[C@H](N)c3ccccc3)C(=O)N2[C@H]1C(=O)O` [AMPICILLIN]: the inhibition entry in assay [1] was “inactive”. Also, the zone of inhibition at 1000 µg/mL was determined as 29.5 mm in assay [3], 30.5 mm in assay [4] and 31.2 mm in assay [5].
With `N#CC(C#N)/N=N/c1nc2ccccc2[nH]1`, the inhibition entry in assay [1], in assay [2], in assay [3], in assay [4] and in assay [6] was “inactive” in each case. Moreover, the zone of inhibition at 1000 µg/mL in assay [5] amounted to 10.8 mm.
For NYSTATIN, the values for the inhibition zone (IZ) in assay [2] and in assay [6] were 36 mm and 25 mm, respectively.
